Test results taken from patent US20220177487A1, “FUSED POLYCYCLIC PYRIDONE COMPOUNDS AS INFLUENZA VIRUS REPLICATION INHIBITORS” (NIKANG THERAPEUTICS, INC., priority 2019, published 2022).
pEC50: −log10 of the molar value.

These compounds were tested on Influenza virus A/PR/8/34 (H1N1) (assay: in vitro cytopathic effect (CPE) assay in MDCK cells). Conditions: H1N1|PR/8, 120 h; MDCK cells infected with Influenza virus A/PR/8/34 (H1N1), 5 days, cell viability by CCK8.
Type: cell-based
`O=C1c2c(O)c(=O)ccn2N([C@@H]2c3ccccc3SCc3cccc(F)c32)[C@@H]2[C@H]3C[C@@H]4CC[C@@]3(CCN12)O4` [Compound 3, (2S,4aS,14aR,14bR)-14-((S)-10-fluoro-6,11-dihydro-dibenzo[b,e]thiepin-11-yl)-9-hydroxy-1,3,4,5,6,14,14a,14b-octahydro-2H-2,4a-epoxypyrido[1′,2′:1,6][1,2,4]triazino[3,4-a]-isoquinoline-8,10-dione] gave a pEC50 of 8.68. Compound `O=C1c2c(O)c(=O)ccn2N([C@H]2c3ccccc3SCc3cccc(F)c32)[C@@H]2[C@H]3C[C@@H]4CC[C@@]3(CCN12)O4` [Compound 4, (2S,4aS,14aR,14bR)-14-((R)-10-fluoro-6,11-dihydro-dibenzo[b,e]thiepin-11-yl)-9-hydroxy-1,3,4,5,6,14,14a,14b-octahydro-2H-2,4a-epoxypyrido[1′,2′:1,6][1,2,4]triazino[3,4-a]-isoquinoline-8,10-dione] has a pEC50 of 7.28. Work on `O=C1c2c(O)c(=O)ccn2N(C2c3cccc(F)c3CCc3c(F)cccc32)[C@@H]2[C@H]3C[C@@H]4CC[C@@]3(CCN12)O4` [Compound 9, (2S,4aS,14aR,14bR)-14-(1,9-difluoro-10,11-dihydro-5H-dibenzo[a,d][7]annulen-5-yl)-9-hydroxy-1,3,4,5,6,14,14a,14b-octahydro-2H-2,4a-epoxypyrido[1′,2′:1,6][1,2,4]triazino[3,4-a]-isoquinoline-8,10-dione] yielded a pEC50 of 7.70. Compound `O=C1c2c(O)c(=O)ccn2N(C2c3ccc(F)cc3CCc3cc(F)ccc32)[C@@H]2[C@H]3C[C@@H]4CC[C@@]3(CCN12)O4` [Compound 10, (2S,4aS,14aR,14bR)-14-(2,8-difluoro-10,11-dihydro-5H-dibenzo[a,d][7]annulen-5-yl)-9-hydroxy-1,3,4,5,6,14,14a,14b-octahydro-2H-2,4a-epoxypyrido[1′,2′:1,6][1,2,4]triazino[3,4-a]-isoquinoline-8,10-dione] has a pEC50 of 8.44.
